Where two headings read alike, the source gives them in different places.
Legend:
[1] = gas anesthesia during MRI, cited from earlier work
[2] = in vivo
Excerpt: Three scout scans are first acquired to position the subsequent T2 weighted images along the standard anatomical orientations in a reproducible manner. T2 weighted axial images are acquired with multislice fast spin echo (FSE) sequence using TR/TEeff=[…]/80 ms, rapid acquisition with relaxation enhancement (RARE) factor=16, FOV=26 mm, acquisition matrix=256×256, slice thickness 0.6 mm, slice gap=0.1 mm and NEX 28. The in-plane resolution is 100 μm. This sequence is repeated 4 times, for a total imaging time of 60 minutes. The first 15 minutes correspond to pre-gadolinium image, after this time period a delay of 1-2 minutes precede the ip gadolinium injection while the mouse is being imaged. The injection lasts 30 seconds. All images are acquired utilizing the same dynamic range, so there is no risk of rescale.
An intravascular contrast agent is required to generate a CBV map of the brain. Different contrast agents have been used for CBV mapping in rodents. Most studies to date have relied on intravenous injections for contrast delivery. Because IV delivery is often problematic in rodents, associated with frequent morbidity and even occasional mortality, it is not ideally suited for longitudinal studies imaging rodents repeatedly over time. […]

[3] = system: adult hippocampal neural progenitor cells; details: in vivo; mediated at least in part by NeuroD (Hao 2004; Hsieh 2004); cited from earlier work

FC(F)OC(Cl)C(F)(F)F (stereo not shown) [isoflurane]
Cerebral hemodynamic change produced by anesthetic [1]: none or minimal cerebral hemodynamic changes
Cerebral hemodynamic change produced by anesthetic ([1]; listed as Isofluorane): minimal cerebral hemodynamic change

CNC(=O)CN(CCN(CCN(CC(=O)[O-])CC(=O)NC)CC(=O)[O-])CC(=O)[O-].[Gd+3] [gadolinium, gadodiamide]
IP dose above which gadolinium has toxic effects (mainly transient unsteady gait, possibly vertigo) [2]: Above 10 mMol

CCCC(CCC)C(=O)O [VPA, 2-propylpentanoic acid]
Induction of adult hippocampal neural progenitor cells to differentiate into neurons [3]: induce adult hippocampal neural progenitor cells to differentiate predominantly into neurons
